# Source: the NIST ThermoML archive (doi:10.1021/je034197x)
# ± gives the expanded uncertainty stated by the source.
# Details: Liquid, Closed cell (Static) method
Structure (SMILES),vapor or sublimation pressure (298.15 K) [kPa],vapor or sublimation pressure (303.15 K) [kPa],vapor or sublimation pressure (308.15 K) [kPa],vapor or sublimation pressure (313.15 K) [kPa],vapor or sublimation pressure (318.15 K) [kPa],vapor or sublimation pressure (323.15 K) [kPa],vapor or sublimation pressure (328.15 K) [kPa],vapor or sublimation pressure (333.15 K) [kPa],vapor or sublimation pressure (338.15 K) [kPa],vapor or sublimation pressure (343.15 K) [kPa],vapor or sublimation pressure (348.15 K) [kPa],vapor or sublimation pressure (353.15 K) [kPa],vapor or sublimation pressure (358.15 K) [kPa],vapor or sublimation pressure (363.15 K) [kPa]
CCO [ethanol],7.916 ± 0.024,10.54 ± 0.031,13.84 ± 0.039,17.98 ± 0.049,23.17 ± 0.062,29.58 ± 0.077,37.46 ± 0.097,46.95 ± 0.12,58.58 ± 0.15,72.24 ± 0.18,88.66 ± 0.22,–,–,–
CCCO [propan-1-ol],2.88 ± 0.013,3.998 ± 0.015,5.374 ± 0.018,7.197 ± 0.023,9.568 ± 0.028,12.42 ± 0.035,16.14 ± 0.044,20.72 ± 0.055,26.41 ± 0.069,33.23 ± 0.086,41.63 ± 0.11,51.67 ± 0.13,63.69 ± 0.16,77.81 ± 0.2
CO [methanol],16.95 ± 0.046,21.88 ± 0.058,27.98 ± 0.073,35.51 ± 0.092,44.59 ± 0.11,55.65 ± 0.14,68.94 ± 0.17,84.62 ± 0.21,–,–,–,–,–,–
CCCCO [butan-1-ol],1.003 ± 0.2,1.317 ± 0.2,1.841 ± 0.2,2.544 ± 0.2,3.453 ± 0.2,4.648 ± 0.2,6.171 ± 0.2,8.103 ± 0.2,10.56 ± 0.2,13.6 ± 0.2,17.37 ± 0.2,21.98 ± 0.2,27.65 ± 0.2,34.41 ± 0.21

# The next lines start with the values.
vapor or sublimation pressure (298.15 K) [kPa],vapor or sublimation pressure (303.15 K) [kPa],vapor or sublimation pressure (308.15 K) [kPa],vapor or sublimation pressure (313.15 K) [kPa],vapor or sublimation pressure (318.15 K) [kPa],vapor or sublimation pressure (323.15 K) [kPa],vapor or sublimation pressure (328.15 K) [kPa],vapor or sublimation pressure (333.15 K) [kPa],vapor or sublimation pressure (338.15 K) [kPa],vapor or sublimation pressure (343.15 K) [kPa],vapor or sublimation pressure (348.15 K) [kPa],vapor or sublimation pressure (353.15 K) [kPa],vapor or sublimation pressure (358.15 K) [kPa],vapor or sublimation pressure (363.15 K) [kPa],Structure (SMILES)
2.44 ± 0.2,3.373 ± 0.2,4.588 ± 0.2,6.234 ± 0.2,8.252 ± 0.2,10.86 ± 0.2,14.13 ± 0.2,18.34 ± 0.2,23.49 ± 0.2,29.71 ± 0.21,37.2 ± 0.21,46.36 ± 0.21,57.16 ± 0.22,70.24 ± 0.23,CCC(C)O (stereo not drawn) [butan-2-ol]
5.799 ± 0.2,7.859 ± 0.2,10.52 ± 0.2,13.94 ± 0.2,18.24 ± 0.2,23.64 ± 0.2,30.35 ± 0.21,38.59 ± 0.21,48.66 ± 0.21,60.66 ± 0.22,75.22 ± 0.23,92.44 ± 0.24,–,–,CC(C)O [propan-2-ol]
